Laboratory results taken from paper PMC3663535, “Substrate Selectivity of the Acid-activated Glutamate/γ-Aminobutyric acid (GABA) Antiporter GadC from Escherichia coli” (The Journal of Biological Chemistry, 2013).

Molecular target: T1, WT GadC (Escherichia coli, UniProt P63235)
T1 construct: full-length wild type; hexahistidine tag proteolytically removed; recombinant, reconstituted in E. coli polar lipid proteoliposomes
Assay: proteoliposome Gln/GABA exchange with membrane potential
Assay type: biochemical
Settings: 5 mM internal GABA, efflux followed through influx of 50 μM external [3H]Gln; pH 5.5

T1 sequence (P63235 whole entry): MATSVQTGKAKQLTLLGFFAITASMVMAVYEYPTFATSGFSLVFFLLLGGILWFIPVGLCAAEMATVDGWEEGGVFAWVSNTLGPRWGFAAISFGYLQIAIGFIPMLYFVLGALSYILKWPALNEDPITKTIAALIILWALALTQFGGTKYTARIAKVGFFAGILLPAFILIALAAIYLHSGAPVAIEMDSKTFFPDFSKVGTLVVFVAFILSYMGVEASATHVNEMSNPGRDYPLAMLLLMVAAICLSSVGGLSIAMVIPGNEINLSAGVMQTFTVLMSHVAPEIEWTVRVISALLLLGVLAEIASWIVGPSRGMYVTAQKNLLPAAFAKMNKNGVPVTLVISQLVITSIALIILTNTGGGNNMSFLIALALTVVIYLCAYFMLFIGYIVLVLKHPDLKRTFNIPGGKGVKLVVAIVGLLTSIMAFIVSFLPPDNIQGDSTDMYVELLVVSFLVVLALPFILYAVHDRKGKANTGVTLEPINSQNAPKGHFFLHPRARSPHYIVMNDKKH

NCCCC(=O)O [GABA]
proteoliposome Gln/GABA exchange with membrane potential: confirm our prediction that GABA^+ is the transport substrate for GadC
